Test results reported in article PMC3265452 (PLoS Neglected Tropical Diseases, 2012).
Where a name gives a salt, the structure may show the parent alone.

biological target: AaDOP2 (Aedes aegypti, UniProt H6D5H2); test: AaDOP2 antagonist screen of the LOPAC1280 library (HEK-CRELuc-Aadop2 cells, luminescence); assay type: cell-based; conditions: not given
Sequence (H6D5H2 1-476): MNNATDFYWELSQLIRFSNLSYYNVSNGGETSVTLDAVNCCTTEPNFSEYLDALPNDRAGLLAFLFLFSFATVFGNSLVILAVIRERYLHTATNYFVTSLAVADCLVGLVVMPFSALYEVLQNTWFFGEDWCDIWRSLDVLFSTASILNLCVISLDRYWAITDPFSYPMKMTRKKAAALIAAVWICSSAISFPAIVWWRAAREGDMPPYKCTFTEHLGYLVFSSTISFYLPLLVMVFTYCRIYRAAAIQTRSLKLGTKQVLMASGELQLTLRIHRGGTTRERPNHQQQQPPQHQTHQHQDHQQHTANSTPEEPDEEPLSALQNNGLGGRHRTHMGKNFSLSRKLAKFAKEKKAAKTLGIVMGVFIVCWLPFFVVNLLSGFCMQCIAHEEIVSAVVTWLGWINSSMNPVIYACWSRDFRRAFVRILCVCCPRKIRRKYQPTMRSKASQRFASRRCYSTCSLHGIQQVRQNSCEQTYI

SMILES | Compound effect (percent receptor signaling in presence of test compound, relative lux units relative to the SCH23390 control)
NC(=O)CN1CC(O)CC1=O (centres unmarked) [Compound 902, Oxiracetam] | 101
C[C@@H]1O[C@@H](O[C@H]2C[C@@H](O)[C@]3(CO)[C@H]4[C@H](O)C[C@]5(C)[C@@H](C6=CC(=O)OC6)CC[C@]5(O)[C@@H]4CC[C@]3(O)C2)[C@H](O)[C@H](O)[C@H]1O [Compound 903, Ouabain] | 50
O=c1onc2cnc3ccccc3n12 [Compound 904, ODQ] | 98
CC1COc2c(N3CCN(C)CC3)c(F)cc3c(=O)c(C(=O)O)cn1c23 (centres unmarked) [Compound 907, Ofloxacin] | 92
O=C(O)/C=C/C(=O)O.O=C(O)/C=C/C(=O)O.O=C(O)/C=C/C(=O)O.O=C1CCCN1CC#CCN1CCCC1.O=C1CCCN1CC#CCN1CCCC1 [Compound 908, Oxotremorine sesquifumarate salt] | 88
O=c1[nH]c2ccccc2n1CCCN1CCN(C(c2ccccc2)c2ccccc2)CC1 [Compound 909, Oxatomide] | 72
Cn1cc(C2=C(c3ccc(Cl)cc3Cl)C(=O)NC2=O)c2ccccc21 [Compound 910, SB 216763] | 80
O=C(O)CCc1nc(-c2ccccc2)c(-c2ccccc2)o1 [Compound 911, Oxaprozin] | 106
C[N+](C)(C)CC#CCN1CCCC1=O [Compound 912, Oxotremorine methiodide] | 99
CC(=O)[C@H]1CC[C@H]2[C@@H]3CCC4=CC(=O)CC[C@]4(C)[C@H]3CC[C@]12C [Compound 914, Progesterone] | 77
CCCCCCCCCCCCCCCC(=O)NCCO [Compound 915, Palmitoylethanolamide] | 89
N=C(N)c1ccc(OCCCCCOc2ccc(C(=N)N)cc2)cc1 [Compound 917, Pentamidine isethionate] | 87
C=C1C(=O)O[C@H]2[C@H]1CC/C(C)=C/CC[C@@]1(C)O[C@@H]21 [Compound 919, Parthenolide] | 74
CC(C)NCC(O)COc1cccc2[nH]ccc12 (centres unmarked) [Compound 920, Pindolol] | 96
N#Cc1c(-c2ccccc2)no[n+]1[O-] [Compound 925, 4-Phenyl-3-furoxancarbonitrile] | 93
CC(=O)CCCCn1c(=O)c2c(ncn2C)n(C)c1=O [Compound 926, Pentoxifylline] | 119
O=c1[nH]c2ccccc2n1C1CCN(CCCC(c2ccc(F)cc2)c2ccc(F)cc2)CC1 [Compound 927, Pimozide] | 61
CC(=O)O[C@H]1C[C@@H]2CC[C@@H]3[C@H](CC[C@@]4(C)[C@H]3C[C@H]([N+]3(C)CCCCC3)[C@@H]4OC(C)=O)[C@@]2(C)C[C@@H]1[N+]1(C)CCCCC1 [Compound 929, Pancuronium bromide] | 96
C[C@]12CC[C@@H](O)C[C@@H]1CC[C@@H]1[C@@H]2CC[C@]2(C)[C@@H](C(=O)CO)CC[C@@H]12 [Compound 930, 3-alpha,21-Dihydroxy-5-alpha-pregnan-20-one] | 96
Cc1ccc(=O)n(-c2ccccc2)c1 [Compound 931, Pirfenidone] | 102
Cn1c(=O)c2[nH]c(-c3ccccc3)nc2n(C)c1=O [Compound 932, 1,3-Dimethyl-8-phenylxanthine] | 107

SMILES | Compound effect (percent receptor signaling in presence of test compound, relative lux units relative to the SCH23390 control)
N=C1Sc2ccccc2C2=NCCCN12 [Compound 935, PD 404,182] | 101
COc1ccc(Cc2nccc3cc(OC)c(OC)cc23)cc1OC [Compound 936, Papaverine hydrochloride] | 92
S=C(Nc1ccccc1)Nc1nccs1 [Compound 938, 1-Phenyl-3-(2-thiazolyl)-2-thiourea] | 84
C=C/C(C)=C/[C@@]1(C)SC(=O)C(C)=C1O [Compound 939, Thiolactomycin] | 96
N.N.[Cl][Pt][Cl] [Compound 940, Cisplatin] | 88
COc1cc([C@@H]2c3cc4c(cc3[C@H](O)[C@H]3COC(=O)[C@H]23)OCO4)cc(OC)c1OC [Compound 941, Podophyllotoxin] | 84
CC(C)[C@H](CO)Nc1nc(Nc2cccc(Cl)c2)c2ncn(C(C)C)c2n1 [Compound 942, Purvalanol A] | 7
C[C@H](Cc1ccccc1)Nc1ncnc2c1ncn2[C@@H]1O[C@H](CO)[C@@H](O)[C@H]1O [Compound 944, R(-)-N6-(2-Phenylisopropyl)adenosine] | 112
CCCC(CCC)C(=O)O [Compound 945, Valproic acid sodium] | 85
O=C(C1CCCCC1)N1CC(=O)N2CCc3ccccc3C2C1 (centres unmarked) [Compound 947, Praziquantel] | 81
CCCNCC(O)COc1ccccc1C(=O)CCc1ccccc1 (centres unmarked) [Compound 948, Propafenone hydrochloride] | 74
CC(=O)[C@H]1CC[C@H]2[C@@H]3CC[C@H]4C[C@H](O)CC[C@]4(C)[C@H]3C(=O)C[C@]12C [Compound 949, 5alpha-Pregnan-3alpha-ol-11,20-dione] | 89
CN1C(C)(C)CCCC1(C)C [Compound 950, Pempidine tartrate] | 100
NC(=O)CN1CCCC1=O [Compound 951, Piracetam] | 103
C[C@@H]1O[C@@H]1P(=O)(O)O [Compound 952, Phosphomycin disodium] | 104
COc1ccc(CN(CCN(C)C)c2ccccn2)cc1 [Compound 953, Pyrilamine maleate] | 59
CN1C(C(=O)Nc2ccccn2)=C(O)c2ccccc2S1(=O)=O [Compound 954, Piroxicam] | 83
CCCn1c(=O)[nH]c(=O)c2[nH]cnc21 [Compound 955, 3-n-Propylxanthine] | 93
CNC[C@H](O)c1cccc(O)c1 [Compound 956, Phenylephrine hydrochloride] | 93
OCCN1CCN(CCCN2c3ccccc3Sc3ccc(Cl)cc32)CC1 [Compound 957, Perphenazine] | 5
C1CCc2nnnn2CC1 [Compound 958, Pentylenetetrazole] | 94

same assay, conditions: 10 µM compound, 300 nM dopamine, 2 hr; hit = compound effect <20

SMILES | Compound effect (percent receptor signaling in presence of test compound, relative lux units relative to the SCH23390 control) [%]
N[C@@H](COP(=O)(O)O)C(=O)O [Compound 921, O-Phospho-L-serine] | 102
CCCC(C(=O)OCCN(CC)CC)(c1ccccc1)c1ccccc1.Cl [Compound 923, SKF-525A hydrochloride] | 88
O=C(O)CC[C@@H](C(=O)O)N1C(=O)c2ccccc2C1=O [Compound 928, L-Glutamic acid, N-phthaloyl-] | 106
Cc1nc(N=Nc2cc(S(=O)(=O)[O-])c3cc([N+](=O)[O-])cc(S(=O)(=O)[O-])c3c2)c(COP(=O)([O-])[O-])c(C=O)c1O.[Na+].[Na+].[Na+].[Na+] [Compound 934, PPNDS tetrasodium] | 106
C[N+]1(CCCCC[N+]2(C)CCCC2)CCCC1.O=C([O-])C(O)C(O)C(=O)O.O=C([O-])C(O)C(O)C(=O)O [Compound 937, Pentolinium di[L(+)-tartrate]] | 94
CC[C@@H]1C(=O)OC[C@@H]1Cc1cncn1C.Cl [Compound 959, (+)-Pilocarpine hydrochloride] | 104

same assay, conditions: read-out: % of the SCH23390 effect (percent inhibition of receptor response relative to the SCH23390 control)

SMILES | inhibition at 10 µM [%]
CC(C)[C@H](CO)Nc1nc(Nc2cccc(Cl)c2)c2ncn(C(C)C)c2n1 [Compound 942, Purvalanol A] | 93
OCCN1CCN(CCCN2c3ccccc3Sc3ccc(Cl)cc32)CC1 [Compound 957, Perphenazine] | 95
